# Tested on: IL-2 production
# Test: Inhibition of IL-2 production in PHA-activated Jurkat cells (ELISA)
# Assay type: cell-based
# Conditions: Homo sapiens, PHA 2.5 μg/mL, 20 hours
# Experimental: Jurkat cells were placed in a 96 well plate (0.5 million cells per well in 1% FBS medium) then test compounds of this invention were added at different concentrations. After 10 minutes, the cells were activated with PHA (final concentration 2.5 μg/mL) and incubated for 20 hours at 37° C. under CO2. The final volume was 200 μL. Following incubation, the cells were centrifuged and the supernatants collected and stored at −70° C. prior to assaying for IL-2 production. A commercial ELISA kit (IL-2 Eli-pair, Diaclone Research, Besancon, France) was used to detect production of IL-2, from which dose response curves were obtained. The IC50 value was calculated as the concentration at which 50% of maximum IL-2 production after stimulation was inhibited versus a non-stimulation control.
# [1] = bin given with mixed units 500 nM-1 μM
SMILES,IC50 (binned values),IC50 [1]
"COc1ccc2c(c1)nc(C(F)(F)F)n2-c1ccc(NC(=O)c2ccncc2F)nc1 [Compound 201, 3-Fluoro-N-[5-(5-methoxy-2-trifluoromethyl-benzoimidazol-1-yl)-pyridin-2-yl]-isonicotinamide]",100 to 500 nM,–
"Cc1nc2ccccc2n1-c1ccc(NC(=O)c2cccc(F)c2F)cc1 [Compound 59, 2,3-Difluoro-N-[4-(2-methyl-benzoimidazol-1-yl)-phenyl]-benzamide]",> 1000 nM,–
"COc1ccc2c(c1)nc(C(F)(F)F)n2-c1ccc(NC(=O)c2ccc(C)cc2)nc1 [Compound 211, N-[5-(5-Methoxy-2-trifluoromethyl-benzoimidazol-1-yl)-pyridin-2-yl]-4-methyl-benzamide]",> 1000 nM,–
"COc1ccc2c(c1)nc(C(F)(F)F)n2-c1ccc(NC(=O)C2CCC2)nc1 [Compound 169, Cyclobutanecarboxylic acid [5-(5-methox-2-trifluoromethyl-benzoimidazol-1-yl)-pyridin-2-yl]-amide]",–,500 to 1000 nM
"CCc1ccc(C(=O)Nc2ccc(-n3c(C(F)(F)F)nc4cc(OC)ccc43)cn2)cc1 [Compound 215, 4-Ethyl-N-[5-(5-methoxy-2-trifluoromethyl-benzoimidazol-1-yl)-pyridin-2-yl]-benzamide]",> 1000 nM,–
"COc1ccc2c(c1)nc(C(F)(F)F)n2-c1ccc(NC(=O)c2cccc(C)c2)nc1 [Compound 198, N-[5-(5-Methoxy-2-trifluoromethyl-benzoimidazol-1-yl)-pyridin-2-yl]-3-methyl-benzamide]",–,500 to 1000 nM
"COc1ccc2c(c1)nc(C(F)(F)F)n2-c1ccc(NC(=O)c2ncc[nH]2)nc1 [Compound 216, 1H-Imidazole-2-carboxylic acid [5-(5-methoxy-2-trifluoromethyl-benzoimidazol-1-yl)-pyridin-2-yl]-amide]",> 1000 nM,–
"COc1ccc2c(c1)nc(C(F)(F)F)n2-c1ccc(NC(=O)c2cccc(I)c2)nc1 [Compound 181, 3-Iodo-N-[5-(5-methoxy-2-trifluoromethyl-benzoimidazol-1-yl)-pyridin-2-yl]-benzamide]",> 1000 nM,–
"COc1ccc2c(c1)nc(C(F)(F)F)n2-c1ccc(NC(=O)Cc2ccccc2)cc1 [Compound 95, 2-phenyl-N-[4-(2-trifluoromethyl-5-methoxy-benzoimidazol-1-yl)-phenyl]-acetamide]",–,500 to 1000 nM
"COc1ccc2c(c1)nc(C(F)(F)F)n2-c1ccc(NC(=O)c2ccccc2[N+](=O)[O-])nc1 [Compound 197, 2-Nitro-N-[5-(5-methoxy-2-trifluoromethyl-benzoimidazol-1-yl)-pyridin-2-yl]-benzamide]",< 100 nM,–
"O=C(Nc1ccc(-n2c(C(F)(F)F)nc3ccccc32)c(Cl)c1)c1cccc(F)c1F [Compound 25, 2,3-Difluoro-N-[2-.chloro-4-(2-trifluoromethyl-benzoimidazol-1-yl)-phenyl]-benzamide]",100 to 500 nM,–
"O=C(Nc1cccc(F)c1F)c1ccc(-n2c(C(F)(F)F)nc3ccccc32)cc1 [Compound 46, N-(2,3-difluorophenyl)-4-(2-trifluoromethyl-benzoimidazol-1-yl)-benzamide]",–,500 to 1000 nM
"N#C/C(=C\c1ccc(-n2c(C(F)(F)F)nc3ccccc32)cc1)c1cc(F)ccc1F [Compound 48, 1-(2,5-difluoro-phenyl)-3-[4-(2-trifluoromethyl-benzoimidazol-1-yl)-phenyl]-acrylonitrile]",–,500 to 1000 nM
"COc1ccc2c(c1)nc(C(F)(F)F)n2-c1ccc(NC(=O)c2ccc(F)cc2)nc1 [Compound 170, 4-Fluoro-N-[5-(5-methoxy-2-trifluoromethyl-benzoimidazol-1-yl)-pyridin-2-yl]-benzamide]",100 to 500 nM,–
"COc1ccc2c(c1)nc(C(F)(F)F)n2-c1ccc(NC(=O)CC(C)C)nc1 [Compound 189, N-[5-(5-Methoxy-2-trifluoromethyl-benzoimidazol-1-yl)-pyridin-2-yl]-3-methyl-butyramide]",< 100 nM,–
"COc1ccc2c(c1)nc(C(F)(F)F)n2-c1ccc(NC(=O)c2ccc([N+](=O)[O-])cc2)nc1 [Compound 190, N-[5-(5-Methoxy-2-trifluoromethyl-benzoimidazol-1-yl)-pyridin-2-yl]-4-nitro-benzamide]",100 to 500 nM,–
"O=C(Nc1ccc(-n2c(C(F)(F)F)nc3ccccc32)cc1)c1cccnc1 [Compound 45, N-[4-(2-trifiuoromethyl-benzoimidazol-1-yl)-phenyl]-nicotinamide]",–,500 to 1000 nM
"COc1ccc2c(c1)nc(C(F)(F)F)n2-c1ccc(NC(=O)c2cccc(SC)c2)nc1 [Compound 209, N-[5-(5-Methoxy-2-trifluoromethyl-benzoimidazol-1-yl)-pyridin-2-yl]-3-methylsulfanyl-benzamide]",> 1000 nM,–
"CNCc1ccc(C(=O)Nc2ccc(-n3c(C(F)(F)F)nc4cc(OC)ccc43)cn2)cc1 [Compound 212, N-[5-(5-Methoxy-2-trifluoromethyl-benzoimidazol-1-yl)-pyridin-2-yl]-4-methylaminomethyl-benzamide]",> 1000 nM,–
"CCCC(=O)Nc1ccc(-n2c(C(F)(F)F)nc3cc(OC)ccc32)cn1 [Compound 167, N-[5-(5-Methoxy-2-trifluoromethyl-benzoimidazol-1-yl)-pyridin-2-yl]-butyramide]",100 to 500 nM,–
"O=C(Nc1ccc(-n2c(C(F)(F)F)nc3cccnc32)cc1)c1cccc(F)c1F [Compound 44, 2,3-Difluoro-N-[4-(2-trifiuoromethyl-imidazo[4,5-b]pyrid-3-yl)-phenyl]-benzamide]",–,500 to 1000 nM
"CCCc1ccc(C(=O)Nc2ccc(-n3c(C(F)(F)F)nc4cc(OC)ccc43)cn2)cc1 [Compound 207, N-[5-(5-Methoxy-2-trifluoromethyl-benzoimidazol-1-yl)-pyridin-2-yl]-4-propyl-benzamide]",> 1000 nM,–
"O=C(Nc1ccc(-n2c(C(F)(F)F)nc3cccnc32)cc1)c1cc(F)ccc1F [Compound 56, 2,5-Difluoro-N-[4-(2-trifluoromethyl-imidazo[4,5-b]pyrid-3-yl)-phenyl]-benzamide]",–,500 to 1000 nM
"COc1ccc2c(c1)nc(C(F)(F)F)n2-c1ccc(NC(=O)c2ccccc2OC)nc1 [Compound 206, 2-Methoxy-N-[5-(5-methoxy-2-trifluoromethyl-benzoimidazol-1-yl)-pyridin-2-yl]-benzamide]",> 1000 nM,–
"COc1ccc2c(c1)nc(C(F)(F)F)n2-c1ccc(NC(=O)c2c(F)cccc2Cl)nc1 [Compound 173, 2-Chloro-6-fluoro-N-[5-(5-methoxy-2-trifluoromethyl-benzoimidazol-1-yl)-pyridin-2-yl]-benzamide]",< 100 nM,–
"Cc1cc2nc(C(F)(F)F)n(-c3ccc(NC(=O)c4cccc(F)c4F)cc3)c2cc1C [Compound 42, 2,3-Difluoro-N-[4-(2-trifluoromethyl-5,6-dimethyl-benzoimidazol-1-yl)-phenyl]-benzamide]",–,500 to 1000 nM
"COc1ccc2c(c1)nc(C(F)(F)F)n2-c1ccc(NC(=O)c2ccccc2Cl)nc1 [Compound 178, 2-Chloro-N-[5-(5-methoxy-2-trifluoromethyl-benzoimidazol-1-yl)-pyridin-2-yl]-benzamide]",< 100 nM,–
"COc1ccc2c(c1)nc(C(F)(F)F)n2-c1ccc(NC(=O)c2ccc(Cl)cc2Cl)nc1 [Compound 176, 2,4-Dichloro-N-[5-(5-methoxy-2-trifluoromethyl-benzoimidazol-1-yl)-pyridin-2-yl]-benzamide]",< 100 nM,–

# Source: patent publication US8163777B2, “Benzimidazolyl-pyridine compounds for inflammation and immune-related uses” (Synta Pharmaceuticals Corp., priority 2006, dated 2012)
